In US11753418B2, “Compounds for the modulation of Myc activity” (Syros Pharmaceuticals, Inc., priority 2015, dated 2023):
Counter-ions that a name gives are not always drawn.

Experiments:
[1] = test system: human small lung cancer cell line H2171; test: Cell Viability Assay (ATPlite); format: cell-based; details: NCI-H2171, 72 h, H2171 cells, incubated for three days, ATPlite readout
Protocol: Compounds of the invention were assayed for cell viability using the human small lung cancer cell line H2171 as described in the following protocol. Cells were counted and adjusted to 20,000 cells/mL. Using a Biotek EL406, 50 μL of cells in media were distributed into 384 well white plates from Thermo. Immediately after plating, compound in DMSO was distributed to plates. Compounds were added to plates using a 50 nL 384 well pin transfer manifold on a Janus workstation. Stocks were arrayed in 10 point dose response in DMSO stock in 384 well Greiner compound plates. After the addition of compounds, plates were incubated for three days in a 37° C. incubator. Cell viability was read out using ATPlite from Perkin Elmer. Lyophilized powder was resuspended in lysis buffer and diluted 1:2 with deionized water. 25 μL of this solution was added to each well using the Biotek liquid handler. Plates were incubated for 15 minutes at room temperature before signal was read on an Envision Plate Reader. The data from this assay are summarized in Table 3 below (H2171 activity).

c-Myc/Max/Ebox DNA = biological target: T1, c-Myc/Max/Ebox DNA (Homo sapiens, UniProt P01106); test: c-Myc/Max/Ebox DNA AlphaScreen Assay; format: binding; details: free c-Myc 20 nM, his6-Max 5 nM, biotinylated Ebox oligo 10 nM, 2 hour incubation
T1 construct: his6 (cleaved yes)
Outline: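 Tag-free c-Myc (20 nM final) and biotinylated Ebox DNA (10 nM final) met compound first, then his6-Max was added; 2 h incubation in pH 8.0 HEPES buffer (150 mM NaCl, BSA, Tween20, glycogen, DTT), DMSO ≤2%. Ternary complex read as AlphaScreen signal between Ni-chelate acceptor and streptavidin donor beads.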

T1 sequence (P01106 whole entry): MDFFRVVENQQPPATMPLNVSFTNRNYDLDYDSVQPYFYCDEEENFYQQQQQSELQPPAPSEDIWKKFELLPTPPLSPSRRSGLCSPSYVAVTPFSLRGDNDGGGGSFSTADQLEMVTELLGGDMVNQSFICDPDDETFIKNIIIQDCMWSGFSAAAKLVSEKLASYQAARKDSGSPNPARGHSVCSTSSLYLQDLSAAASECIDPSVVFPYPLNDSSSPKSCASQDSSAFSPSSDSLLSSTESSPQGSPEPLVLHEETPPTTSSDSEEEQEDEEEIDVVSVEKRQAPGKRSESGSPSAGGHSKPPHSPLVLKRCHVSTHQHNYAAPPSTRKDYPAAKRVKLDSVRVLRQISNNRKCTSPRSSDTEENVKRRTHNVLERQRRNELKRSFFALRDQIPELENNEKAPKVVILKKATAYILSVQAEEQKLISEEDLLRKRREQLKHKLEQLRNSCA

SMILES | IC50 [1] [nM] | IC50 (c-Myc/Max/Ebox DNA) [nM]
O=C(CCNCCc1cccnc1)Nc1sc2c(c1-c1nc3cnccc3s1)CCNC2 [Compound 218, 3-((2-(pyridin-3-yl)ethyl)amino)-N-(3-(thiazolo[4,5-c]pyridin-2-yl)-4,5,6,7-tetrahydrothieno[2,3-c]pyridin-2-yl)propanamide] | < 500 | < 500
CN(C)CCC(=O)Nc1sc2c(c1-c1nc3cnccc3s1)CCNC2 [Compound 219, 3-(dimethylamino)-N-(3-(thiazolo[4,5-c]pyridin-2-yl)-4,5,6,7-tetrahydrothieno[2,3-c]pyridin-2-yl)propanamide] | < 500 | < 500
CC(C)NCCC(=O)Nc1sc2c(c1-c1nc3ncccc3s1)CCNC2 [Compound 220, 3-(isopropylamino)-N-(3-(thiazolo[4,5-b]pyridin-2-yl)-4,5,6,7-tetrahydrothieno[2,3-c]pyridin-2-yl)propanamide dihydrochloride] | < 500 | < 500
O=C(CCNC1CNC1)Nc1sc2c(c1-c1nc3cnccc3s1)CCNC2 [Compound 223, 3-(Azetidin-3-ylamino)-N-(3-(thiazolo[4,5-c]pyridin-2-yl)-4,5,6,7-tetrahydrothieno[2,3-c]pyridin-2-yl)propanamide] | < 500 | < 500
CNCCC(=O)Nc1sc2c(c1-c1nc3cnccc3s1)CCNC2 [Compound 224, 3-(Methylamino)-N-(3-(thiazolo[4,5-c]pyridin-2-yl)-4,5,6,7-tetrahydrothieno[2,3-c]pyridin-2-yl)propanamide] | 500 to 5000 | < 500
Cc1cc2sc(-c3c(NC(=O)CCNC(C)C)sc4c3CCNC4)nc2c(C)n1 [Compound 225, N-(3-(4,6-Dimethylthiazolo[4,5-c]pyridin-2-yl)-4,5,6,7-tetrahydrothieno[2,3-c]pyridin-2-yl)-3-(isopropylamino)propanamide dihydrochloride] | < 500 | < 500
CC[C@H](C)NCCC(=O)Nc1sc2c(c1-c1nc3c(C(F)F)nccc3s1)CCNC2 [Compound 226] | < 500 | < 500
COCCNCCC(=O)Nc1sc2c(c1-c1nc3c(C)nc(C)cc3s1)CCNC2 [Compound 227, N-(3-(4,6-Dimethylthiazolo[4,5-c]pyridin-2-yl)-4,5,6,7-tetrahydrothieno[2,3-c]pyridin-2-yl)-3-((2-methoxyethyl)amino)propanamide dihydrochloride] | < 500 | < 500
CC(=O)Nc1sc2c(c1-c1nc3c(C)nc(C)cc3s1)CCNC2 [Compound 228, N-(3-(4,6-dimethylthiazolo[4,5-c]pyridin-2-yl)-4,5,6,7-tetrahydrothieno[2,3-c]pyridin-2-yl)acetamide hydrochloride] | < 500 | < 500
CCN1Cc2sc(NC(C)=O)c(-c3nc4cnccc4s3)c2C[C@H]1C [Compound 230, (R)—N-(6-ethyl-5-methyl-3-(thiazolo[4,5-c]pyridin-2-yl)-4,5,6,7-tetrahydrothieno[2,3-c]pyridin-2-yl)acetamide] | < 500 | 500 to 5000
CCN1Cc2sc(NC(C)=O)c(-c3nc4cnccc4s3)c2C[C@@H]1C [Compound 231, (S)—N-(6-ethyl-5-methyl-3-(thiazolo[4,5-c]pyridin-2-yl)-4,5,6,7-tetrahydrothieno[2,3-c]pyridin-2-yl)acetamide] | < 500 | 500 to 5000
CCN1CCc2c(sc(NC(C)=O)c2-c2nc3cnccc3s2)[C@@H]1C [Compound 232, (S)—N-(6-ethyl-7-methyl-3-(thiazolo[4,5-c]pyridin-2-yl)-4,5,6,7-tetrahydrothieno[2,3-c]pyridin-2-yl)acetamide] | < 500 | < 500
CC[C@H](C)N(CCC(=O)Nc1sc2c(c1-c1nc3cnccc3s1)CCNC2)Cc1ccccc1 [Compound 233, (S)-3-(Benzyl(sec-butyl)amino)-N-(3-(thiazolo[4,5-c]pyridin-2-yl)-4,5,6,7-tetrahydrothieno[2,3-c]pyridin-2-yl)propanamide hydrochloride] | 500 to 5000 | 5000 to 25000
CC[C@H](C)NCCC(=O)Nc1sc2c(c1-c1nc3cnccc3s1)CCN[C@H]2C [Compound 234, 3-(((S)-sec-butyl)amino)-N—((S)-7-methyl-3-(thiazolo[4,5-c]pyridin-2-yl)-4,5,6,7-tetrahydrothieno[2,3-c]pyridin-2-yl)propanamide] | < 500 | < 500
CC(=O)Nc1sc2c(c1-c1nc3cnccc3s1)C[C@@H](C)N[C@H]2C [Compound 237] | 500 to 5000 | 500 to 5000
CC[C@H](C)NCCC(=O)Nc1sc2c(c1-c1nc3cnccc3s1)CCN(CC)C2 [Compound 238, (S)-3-(sec-butylamino)-N-(6-ethyl-3-(thiazolo[4,5-c]pyridin-2-yl)-4,5,6,7-tetrahydrothieno[2,3-c]pyridin-2-yl)propanamide] | < 500 | < 500
CC[C@H](C)NCCC(=O)Nc1sc2c(c1-c1nc3cnccc3s1)CCN(C(C)C)C2 [Compound 239, (S)-3-(sec-butylamino)-N-(6-isopropyl-3-(thiazolo[4,5-c]pyridin-2-yl)-4,5,6,7-tetrahydrothieno[2,3-c]pyridin-2-yl)propanamide] | < 500 | < 500
COCCNCCC(=O)Nc1sc2c(c1-c1nc3cnc(Cl)cc3s1)CCNC2 [Compound 243] | < 500 | < 500
COCCNCCC(=O)Nc1sc2c(c1-c1nc3cnc(C)cc3s1)CCNC2 [Compound 244] | < 500 | < 500
COCCNCCC(=O)Nc1sc2c(c1-c1nc3c(C(F)F)nc(C)cc3s1)CCNC2 [Compound 245] | < 500 | < 500
C[C@@H]1NCCc2c1sc(NC(=O)CCN[C@@H]1C[C@H]3CNC[C@H]3C1)c2-c1nc2cnccc2s1 [Compound 246, N—((S)-7-methyl-3-(thiazolo[4,5-c]pyridin-2-yl)-4,5,6,7-tetrahydrothieno[2,3-c]pyridin-2-yl)-3-(((3aR,5s,6aS)-octahydrocyclopenta[c]pyrrol-5-yl)amino)propanamide] | < 500 | 500 to 5000
C[C@H]1Cc2c(sc(NC(=O)CCN[C@@H]3C[C@H]4CNC[C@H]4C3)c2-c2nc3cnccc3s2)CN1 [Compound 247, N—((S)-5-methyl-3-(thiazolo[4,5-c]pyridin-2-yl)-4,5,6,7-tetrahydrothieno[2,3-c]pyridin-2-yl)-3-(((3aR,5s,6aS)-octahydrocyclopenta[c]pyrrol-5-yl)amino)propanamide] | < 500 | 5000 to 25000
C[15NH]CCC(=O)Nc1sc2c(c1-c1nc3cnccc3s1)CCNC2 [Compound 248, 3-(Methylamino)-N-(3-(thiazolo[4,5-c]pyridin-2-yl)-4,5,6,7-tetrahydrothieno[2,3-c]pyridin-2-yl)propanamide] | < 500 | < 500
C[C@H]1NCCc2c1sc(NC(=O)CCN[C@@H]1C[C@H]3CNC[C@H]3C1)c2-c1nc2cnccc2s1 [Compound 249, N—((R)-7-methyl-3-(thiazolo[4,5-c]pyridin-2-yl)-4,5,6,7-tetrahydrothieno[2,3-c]pyridin-2-yl)-3-(((3aR,5s,6aS)-octahydrocyclopenta[c]pyrrol-5-yl)amino)propanamide] | < 500 | < 500
C[C@@H]1Cc2c(sc(NC(=O)CCN[C@@H]3C[C@H]4CNC[C@H]4C3)c2-c2nc3cnccc3s2)CN1 [Compound 250, N—((R)-5-methyl-3-(thiazolo[4,5-c]pyridin-2-yl)-4,5,6,7-tetrahydrothieno[2,3-c]pyridin-2-yl)-3-(((3aR,5s,6aS)-octahydrocyclopenta[c]pyrrol-5-yl)amino)propanamide] | < 500 | 500 to 5000
CCC(C)NCCC(=O)[15NH]c1sc2c(c1-c1nc3cnccc3s1)CCNC2 (stereo not shown) [Compound 251, 3-(sec-Butylamino)-N-(3-(thiazolo[4,5-c]pyridin-2-yl)-4,5,6,7-tetrahydrothieno[2,3-c]pyridin-2-yl)propan-^15N-amide] | < 500 | < 500
